{"source": "patent US6930222B2", "about": "“In vivo animal model of human leukemia” (The Scripps Research Institute, priority 2000, dated 2005)", "test_system": "primary T-ALL obtained from patients", "experiment": "in vitro leukemia colony assay (methylcellulose, IL-2 and PMA)", "assay_type": "cell-based, human", "settings": "10 ng/ml", "description": "To characterize the nature of the enhancing activity on leukemia engraftment, colony formation of leukemia clonogenic cells was examined in vitro in the presence of cord blood or cord blood derived mesenchymal stem cell conditioned medium. The in vitro leukemia colony assay is based on the ability of leukemic clonogenic cells to proliferate and form colonies in response to growth factors such as IL-2. These leukemic “progenitor” cells have been implicated in the maintenance and expansion of leukemic blast populations.\nOn microscopic analysis, there is a wide range of colony sizes in the samples to which conditioned medium was added. The colonies in the cultures were individually picked, pooled for similar sizes of colonies, and the number of leukemia cells counted.\nUsing this primary leukemia sample, leukemia colony forming assay with the addition of cord blood conditioned medium was performed. […] On day 14, leukemia colonies were individually picked. Approximately 1.4×10^6 cells were recovered, and these cells were pooled for flow cytometric analysis. The vast majority of cells are uniquely CD45^−CD7^+, CD45^−CD34^+, and CD7^+CD34^+. Collectively, the results are consistent with approximately 90% of the harvested cells from in vitro cultures having the surface phenotype CD45^−CD7^+CD34^+, identical to the atypical phenotype of the primary leukemia of this patient. […]"}
{"substance": "recombinant IL-15: potent immunoregulatory cytokine, also a T-cell growth factor", "values": [{"measurement": "stimulation of colony formation of primary leukemia", "value": "about 80%"}]}
